Assay results taken from patent US20200370087A1, “METHOD FOR DETERMINING MICROBIAL SUSCEPTIBILITY TO ANTIBIOTIC AGENTS” (Ascilion AB, priority 2017, published 2020).
Converted amounts (≈) assume the structure as drawn. Where two headings read alike, the source gives them in different places. One block for each compound: values may come before it.

Assays:
[1] = test system: Escherichia coli ATCC 25922; conditions: E.coli, cited from earlier work
[2] = test system: Enterococcus faecalis (ATCC 29212); test: Glucose consumption susceptibility test, blood culture diluted in MHB with glucose (Example 1); format: cell-based; parameters: glucose concentration, t = 0 / glucose concentration, t = 60 / glucose concentration, t = 120 / glucose concentration, t = 180 / glucose concentration, t = 240 / dC/dT (rate of change in glucose concentration): unit not given here; conditions: for glucose concentration, t = 0: 0 minutes; for glucose concentration, t = 60: 60 minutes; for glucose concentration, t = 120: 120 minutes; for glucose concentration, t = 180: 180 minutes; for glucose concentration, t = 240: 240 minutes; for MIC: Enterococcus faecalis
Outline: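 Blood cultures grown to positivity were diluted 1:100 in cation-adjusted Mueller-Hinton broth with 1.0 mg/mL glucose. Glucose was read by glucometer at 0–240 min.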

[3] = test system: Enterococcus faecalis ATCC 29212; conditions: E.faecalis, cited from earlier work
[4] = range obtained by EUCAST from ISO 20776-1: 2006
[5] = reference value, Mueller-Hinton agar, incubation 18±2 h, N/A = not susceptible
[6] = E. faecalis, antibiotic 0.25 μg/mL
[7] = E. faecalis, antibiotic 0.5 μg/mL
[8] = E. faecalis, antibiotic 1 μg/mL
[9] = E. faecalis, antibiotic 2 μg/mL
[10] = E. faecalis, antibiotic 4 μg/mL
[11] = E. faecalis, antibiotic 8 μg/mL
[12] = E. faecalis, antibiotic 16 μg/mL
[13] = E. faecalis, antibiotic 32 μg/mL
[14] = E. faecalis, antibiotic 0.0625 μg/mL
[15] = E. faecalis, antibiotic 0.125 μg/mL

- MIC ([2]; ATCC29212, E. faecalis, 80% threshold, disregarded as rate of decrease was higher at 32 μg/mL, read-out: MIC value initially obtained (disregarded)): 4 µg/mL (≈ 9.36 µM)
SMILES: CO[C@@]1(NC(=O)Cc2cccs2)C(=O)N2C(C(=O)O)=C(COC(N)=O)CS[C@@H]21 [Cefoxitin, cefoxitin]
- MIC, EUCAST, range in parentheses [1, 4]: (2-8) ug/mL
- MIC, EUCAST [1, 5]: 4 µg/mL (≈ 9.36 µM)
- F = the rate of change in glucose concentration in relation to the reference [2, 6]: 93%
- dC/dT (rate of change in glucose concentration) [2, 6]: 34
- glucose concentration, t = 0 [2, 6]: 151
- glucose concentration, t = 60 [2, 6]: 155
- glucose concentration, t = 120 [2, 6]: 138
- glucose concentration, t = 180 [2, 6]: 88
- glucose concentration, t = 240 [2, 6]: 34
- F = the rate of change in glucose concentration in relation to the reference [2, 7]: 88%
- dC/dT (rate of change in glucose concentration) [2, 7]: 32
- glucose concentration, t = 0 [2, 7]: 145
- glucose concentration, t = 60 [2, 7]: 150
- glucose concentration, t = 120 [2, 7]: 144
- glucose concentration, t = 180 [2, 7]: 87
- glucose concentration, t = 240 [2, 7]: 32
- F = the rate of change in glucose concentration in relation to the reference [2, 8]: 85%
- dC/dT (rate of change in glucose concentration) [2, 8]: 31
- glucose concentration, t = 0 [2, 8]: 148
- glucose concentration, t = 60 [2, 8]: 159
- glucose concentration, t = 120 [2, 8]: 142
- glucose concentration, t = 180 [2, 8]: 98
- glucose concentration, t = 240 [2, 8]: 31
- F = the rate of change in glucose concentration in relation to the reference [2, 9]: 99%
- dC/dT (rate of change in glucose concentration) [2, 9]: 36
- glucose concentration, t = 0 [2, 9]: 149
- glucose concentration, t = 60 [2, 9]: 169
- glucose concentration, t = 120 [2, 9]: 145
- glucose concentration, t = 180 [2, 9]: 98
- glucose concentration, t = 240 [2, 9]: 36
- F = the rate of change in glucose concentration in relation to the reference [2, 10]: 74%
- dC/dT (rate of change in glucose concentration) [2, 10]: 27
- glucose concentration, t = 0 [2, 10]: 150
- glucose concentration, t = 60 [2, 10]: 159
- glucose concentration, t = 120 [2, 10]: 146
- glucose concentration, t = 180 [2, 10]: 106
- glucose concentration, t = 240 [2, 10]: 27
- F = the rate of change in glucose concentration in relation to the reference [2, 11]: 63%
- dC/dT (rate of change in glucose concentration) [2, 11]: 23
- glucose concentration, t = 0 [2, 11]: 144
- glucose concentration, t = 60 [2, 11]: 149
- glucose concentration, t = 120 [2, 11]: 147
- glucose concentration, t = 180 [2, 11]: 104
- glucose concentration, t = 240 [2, 11]: 23
- F = the rate of change in glucose concentration in relation to the reference [2, 12]: 68%
- dC/dT (rate of change in glucose concentration) [2, 12]: 25
- glucose concentration, t = 0 [2, 12]: 148
- glucose concentration, t = 60 [2, 12]: 154
- glucose concentration, t = 120 [2, 12]: 148
- glucose concentration, t = 180 [2, 12]: 105
- glucose concentration, t = 240 [2, 12]: 25
- F = the rate of change in glucose concentration in relation to the reference [2, 13]: 74%
- dC/dT (rate of change in glucose concentration) [2, 13]: 27
- glucose concentration, t = 0 [2, 13]: 148
- glucose concentration, t = 60 [2, 13]: 155
- glucose concentration, t = 120 [2, 13]: 140
- glucose concentration, t = 180 [2, 13]: 102
- glucose concentration, t = 240 [2, 13]: 27

SMILES: CN[C@H](CC(C)C)C(=O)N[C@H]1C(=O)N[C@@H](CC(N)=O)C(=O)N[C@H]2C(=O)N[C@H]3C(=O)N[C@H](C(=O)N[C@H](C(=O)O)c4cc(O)cc(O)c4-c4cc3ccc4O)[C@H](O)c3ccc(c(Cl)c3)Oc3cc2cc(c3O[C@@H]2O[C@H](CO)[C@@H](O)[C@H](O)[C@H]2O[C@H]2C[C@](C)(N)[C@H](O)[C@H](C)O2)Oc2ccc(cc2Cl)[C@H]1O [Vancomycin, vancomycin]
- MIC, EUCAST, range in parentheses [3, 4]: (1-4) ug/mL
- MIC, EUCAST [3, 5]: 2 µg/mL (≈ 1.38 µM)
- F = the rate of change in glucose concentration in relation to the reference [2, 14]: 93%
- dC/dT (rate of change in glucose concentration) [2, 14]: 34
- glucose concentration, t = 0 [2, 14]: 145
- glucose concentration, t = 60 [2, 14]: 156
- glucose concentration, t = 120 [2, 14]: 139
- glucose concentration, t = 180 [2, 14]: 89
- F = the rate of change in glucose concentration in relation to the reference [2, 15]: 83%
- dC/dT (rate of change in glucose concentration) [2, 15]: 30
- glucose concentration, t = 0 [2, 15]: 148
- glucose concentration, t = 60 [2, 15]: 154
- glucose concentration, t = 120 [2, 15]: 149
- glucose concentration, t = 180 [2, 15]: 94
- F = the rate of change in glucose concentration in relation to the reference [2, 6]: 82%
- dC/dT (rate of change in glucose concentration) [2, 6]: 30
- glucose concentration, t = 0 [2, 6]: 143
- glucose concentration, t = 60 [2, 6]: 155
- glucose concentration, t = 120 [2, 6]: 146
- glucose concentration, t = 180 [2, 6]: 96
- F = the rate of change in glucose concentration in relation to the reference [2, 7]: 82%
- dC/dT (rate of change in glucose concentration) [2, 7]: 30
- glucose concentration, t = 0 [2, 7]: 154
- glucose concentration, t = 60 [2, 7]: 155
- glucose concentration, t = 120 [2, 7]: 148
- glucose concentration, t = 180 [2, 7]: 96
- F = the rate of change in glucose concentration in relation to the reference [2, 8]: 75%
- dC/dT (rate of change in glucose concentration) [2, 8]: 27
- glucose concentration, t = 0 [2, 8]: 151
- glucose concentration, t = 60 [2, 8]: 164
- glucose concentration, t = 120 [2, 8]: 153
- glucose concentration, t = 180 [2, 8]: 110
- F = the rate of change in glucose concentration in relation to the reference [2, 9]: 29%
- dC/dT (rate of change in glucose concentration) [2, 9]: 11
- glucose concentration, t = 0 [2, 9]: 147
- glucose concentration, t = 60 [2, 9]: 160
- glucose concentration, t = 120 [2, 9]: 152
- glucose concentration, t = 180 [2, 9]: 139
- glucose concentration, t = 240 [2, 9]: 94
- F = the rate of change in glucose concentration in relation to the reference [2, 10]: 19%
- dC/dT (rate of change in glucose concentration) [2, 10]: 7
- glucose concentration, t = 0 [2, 10]: 147
- glucose concentration, t = 60 [2, 10]: 162
- glucose concentration, t = 120 [2, 10]: 153
- glucose concentration, t = 180 [2, 10]: 148
- glucose concentration, t = 240 [2, 10]: 149
- F = the rate of change in glucose concentration in relation to the reference [2, 11]: 7%
- dC/dT (rate of change in glucose concentration) [2, 11]: 3
- glucose concentration, t = 0 [2, 11]: 150
- glucose concentration, t = 60 [2, 11]: 156
- glucose concentration, t = 120 [2, 11]: 146
- glucose concentration, t = 180 [2, 11]: 151
- glucose concentration, t = 240 [2, 11]: 145
- MIC ([2]; ATCC29212, read-out: MIC, Measured): 1 µg/mL (≈ 0.69 µM)
